Experiments:
[1] = target: Human LATS2 kinase domain protein (Homo sapiens (Human), UniProt Q9NRM7); test: LATS2 Biochemical Caliper Assay (Compound Examples 1-290); details: 400 micromolar ATP
Procedure: Human LATS2 kinase domain protein was purchased from Carnabio (catalogue number 01-124), which harbors the catalytic domain of amino acids 553-1088, and was co-purified with human His-tagged MOBKL1A (NP_775-739). 5 microlitre of enzyme buffer, 100 nL of compounds and 5 microlitre of localising aid buffer were added into 384-well plates. […] The plates were incubated at 25° C. for 3 hours. 40 microlitre of stop buffer with 25 mM EDTA (NanoSyn) was added to each well to terminate the reaction. Localising aids and products were separated electrophoretically using the microfluidic-based Caliper Labchip 3000 Drug Discovery System (Caliper Life Sciences). Plates were read using blue laser excitation and green fluorescence detection and quantified by fluorescence intensity.

[2] = system: Phospho-YAP (Ser127) in JHH-5 cells; test: pYAP HTRF Assay (JHH-5 cells); assay type: cell-based; details: 2 hours
In short: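 JHH-5 cells (24000/well) cultured 24 h at 37 °C in William's E with 10% FBS, then exposed to compounds for 2 h at 37 °C. After lysis, pYAP d2/cryptate antibodies incubated 18 h at room temperature; HTRF ratio 665/620 nm ×10000.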

[3] = system: human corneal endothelial cells (CECs); test: Human corneal endothelial cell population expansion: endothelial cell density in vitro; assay type: cell-based; details: 10 micromolar compound, X-VIVO15 medium, 10 days
Procedure: (§1) Cells were cultured at 37° C. in 5% CO2.
(§2) For each compound, two sets of cultures were generated. A first set of cultures was fixed in 4% PFA for 20 minutes at room temperature after cells isolated from the cornea had attached to the cell culture dish (typically 24 h after cell plating). A second set of cultures was fixed in 4% PFA for 20 minutes at room temperature 10 days after the first one.
(§3) To measure cell density in all fixed cultures, the number of nuclei stained with Sytox Orange (ThermoFisher) were counted per surface area as follows: fixed cell cultures fixed were permeabilized in a solution of 0.3% Triton X-100 (Sigma-Aldrich). Cells were then labeled in a solution of 0.5 micromolar of Sytox Orange in PBS for 5 minutes at room temperature. Nuclei were counted under a Zeiss epifluorescence microscope. The expansion factor was then determined by calculating the ratio of the expanded population of cells to population of seeded cells.

[4] = system: human corneal endothelial cells (CECs); test: Human corneal endothelial cell population expansion: fold cell expansion; assay type: cell-based; details: 10 micromolar compound, X-VIVO15 medium, 10 days, ratio of expanded to seeded cells
Procedure: as §1, §2, §3

[5] = system: Phospho-YAP (SER127) in HaCaT cells; test: pYAP HTRF Assay (HaCaT Cells); assay type: cell-based, human; details: Homo sapiens, 2 hours
In short: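 HaCaT cells at 5500 cells/well were cultured 48 hours at 37° C, then treated with compound for 2 hours. Phospho-YAP (Ser127) was detected by HTRF after an overnight (20 hrs) room-temperature incubation, read as the 665 nm/620 nm ratio.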

[6] = system: YAP nuclear translocation in HaCaT cells; test: YAP Translocation Assay (HaCaT Cells); assay type: cell-based, human; details: Homo sapiens, 24 hours
In short: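 HaCaT cells (20,000/well) in DMEM + 10% FBS were plated overnight at 37° C, then exposed to compound for 24 h at 37° C. Cells were fixed with PFA, permeabilized with 0.1% Triton/1.5% BSA and imaged by high-content imaging.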

[7] = system: human limbal stem cells (LSCs); test: Human limbal stem cell population expansion: expansion factor; assay type: cell-based; details: 10 micromolar, XVIVO15 medium, two passages, ratio of expanded to seeded cells
Procedure: as §1
as §2, with “temperature” for “temperature 10 days”, “being cultured for two passages. Cells were passaged when they reached 90-100% confluence.” for “the first one.”
To evaluate cell expansion ratios, nuclei were counted using a Zeiss LSM 880 confocal microscope. The expansion factor was then determined by calculating the ratio of the expanded population of cells to population of seeded cells.

[8] = system: human limbal stem cells (LSCs); test: Human limbal stem cell population expansion: percentage of p63alpha-positive cells; assay type: cell-based; details: 10 micromolar, XVIVO15 medium
Procedure: as §1
as §2, with “temperature” for “temperature 10 days”, “being cultured for two passages. Cells were passaged when they reached 90-100% confluence.” for “the first one.”
In order to observe that the expanded cell population expressed p63alpha, this was measured by immunohistochemistry as follows. The fixed cell cultures were permeabilized and blocked in a blocking solution of 0.3% Triton X-100 (Sigma-Aldrich) and 3% donkey serum in PBS for 30 minutes. Cells were then labeled with primary antibody in the blocking solution for 12 hours at 4° C. Primary antibody used was p63alpha from Cell Signalling. Samples were washed in PBS three times and donkey-raised secondary antibody Alexa Fluor 488 (Molecular Probes) at 1:500 dilution were applied for 30 minutes at room temperature. Cell nuclei were then labeled in a solution of 0.5 micromolar of Sytox Orange (ThermoFisher) in PBS for 5 minutes at room temperature.
To evaluate the percentage of p63alpha-positive cells, the number of cells labeled by the anti-p63alpha antibody was counted and the total number of cells was determined by counting the number of nuclei stained by Sytox Orange. The proportion of p63alpha-positive cells was then determined by calculating the percentage of Sytox-orange-positive nuclei that also expressed p63alpha.

[9] = target: LATS1 (Homo sapiens (Human), UniProt O95835); test: LATS1 biochemical assay (Table 1A, Compound Examples 1-290; method in the earlier part)
Sequence of LATS1 (O95835 whole entry, looked up): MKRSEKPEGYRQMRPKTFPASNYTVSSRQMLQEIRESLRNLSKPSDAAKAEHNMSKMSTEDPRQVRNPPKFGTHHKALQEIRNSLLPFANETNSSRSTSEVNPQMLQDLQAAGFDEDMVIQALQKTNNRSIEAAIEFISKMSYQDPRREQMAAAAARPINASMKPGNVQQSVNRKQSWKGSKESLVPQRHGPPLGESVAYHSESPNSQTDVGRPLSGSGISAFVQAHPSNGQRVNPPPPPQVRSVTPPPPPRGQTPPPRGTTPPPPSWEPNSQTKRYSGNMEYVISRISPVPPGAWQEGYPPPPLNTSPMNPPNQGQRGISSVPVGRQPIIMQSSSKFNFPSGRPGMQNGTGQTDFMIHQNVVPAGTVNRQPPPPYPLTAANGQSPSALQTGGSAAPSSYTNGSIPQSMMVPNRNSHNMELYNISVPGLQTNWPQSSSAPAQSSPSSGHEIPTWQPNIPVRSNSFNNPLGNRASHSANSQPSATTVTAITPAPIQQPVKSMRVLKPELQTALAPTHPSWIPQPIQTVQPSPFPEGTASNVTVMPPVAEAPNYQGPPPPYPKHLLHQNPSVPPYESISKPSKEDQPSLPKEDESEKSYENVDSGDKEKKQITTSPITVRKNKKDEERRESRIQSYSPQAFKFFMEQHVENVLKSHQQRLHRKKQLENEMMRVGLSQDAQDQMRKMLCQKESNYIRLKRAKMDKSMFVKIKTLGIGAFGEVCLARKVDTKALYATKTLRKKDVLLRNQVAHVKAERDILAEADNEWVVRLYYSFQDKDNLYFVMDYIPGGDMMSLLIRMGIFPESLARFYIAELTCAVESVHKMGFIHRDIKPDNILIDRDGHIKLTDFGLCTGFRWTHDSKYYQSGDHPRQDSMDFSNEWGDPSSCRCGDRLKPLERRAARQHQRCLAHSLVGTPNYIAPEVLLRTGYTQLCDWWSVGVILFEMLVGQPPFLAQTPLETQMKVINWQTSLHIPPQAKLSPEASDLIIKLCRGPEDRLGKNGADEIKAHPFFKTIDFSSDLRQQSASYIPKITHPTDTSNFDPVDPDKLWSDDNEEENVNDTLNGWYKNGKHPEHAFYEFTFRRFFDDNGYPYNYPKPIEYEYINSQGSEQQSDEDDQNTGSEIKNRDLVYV
Sequence of LATS1 (Q7L9L4 whole entry partner, looked up): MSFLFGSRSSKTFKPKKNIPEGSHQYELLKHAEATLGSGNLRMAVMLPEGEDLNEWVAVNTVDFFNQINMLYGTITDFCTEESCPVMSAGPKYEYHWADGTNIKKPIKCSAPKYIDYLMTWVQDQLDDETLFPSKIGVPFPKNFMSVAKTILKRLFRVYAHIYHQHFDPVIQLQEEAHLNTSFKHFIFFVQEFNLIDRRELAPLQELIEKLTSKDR

Sequence of Human LATS2 kinase domain protein (Q9NRM7 553-1088): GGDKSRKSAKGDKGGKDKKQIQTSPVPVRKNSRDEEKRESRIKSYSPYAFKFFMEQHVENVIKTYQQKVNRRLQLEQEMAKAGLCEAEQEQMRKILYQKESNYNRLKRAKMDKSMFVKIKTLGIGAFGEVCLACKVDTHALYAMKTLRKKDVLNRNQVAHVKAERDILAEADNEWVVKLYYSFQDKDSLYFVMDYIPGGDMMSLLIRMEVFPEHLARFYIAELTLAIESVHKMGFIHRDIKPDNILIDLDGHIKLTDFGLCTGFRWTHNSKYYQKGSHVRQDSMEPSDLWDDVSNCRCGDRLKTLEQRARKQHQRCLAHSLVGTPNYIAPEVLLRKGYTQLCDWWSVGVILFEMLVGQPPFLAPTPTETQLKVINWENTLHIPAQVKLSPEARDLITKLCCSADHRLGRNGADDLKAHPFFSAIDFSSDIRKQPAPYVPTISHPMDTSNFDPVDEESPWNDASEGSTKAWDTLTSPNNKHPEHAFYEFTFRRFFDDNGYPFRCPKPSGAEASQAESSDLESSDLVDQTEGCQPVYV
Sequence of Human LATS2 kinase domain protein (Q7L9L4 whole entry partner, the tested form may be a part): as the sequence (Q7L9L4 whole entry partner, looked up) above

Row | SMILES | IC50 [1] [nM] | IC50 [2] [nM] | IC50 [9] [nM] | Endothelial Cell density in vitro [3] [cells/mm^2] | Expansion factor (Fold Cell expansion) [4] | IC50 [5] [nM] | EC50 [6] [nM] | Expansion factor [7] | Percentage of p63a-positive cells [8] [%]
1 | CC(C)Nc1nc(-c2ccncc2)nc2cnccc12 [Example 6, N-(propan-2-yl)-2-(pyridin-4-yl)pyrido[3,4-d]pyrimidin-4-amine] | 8 | 2600 | 1 | 3378 | 391 | 1240 | 1700 | 1275 | 93
2 | CC1CCCC1Nc1nc(-c2ccncc2)nc2cnccc12 (stereo not shown) [Example 17, N-(2-methylcyclopentyl)-2-(pyridin-4-yl)pyrido[3,4-d]pyrimidin-4-amine] | – | – | 5 | 1628 | 187 | 606 | 2630 | 976 | 86
3 | O[C@H]1CCC[C@@H]1Nc1nc(-c2ccncc2)nc2cnccc12 [Example 33, (1S,2S)-2-{[2-(pyridin-4-yl)pyrido[3,4-d]pyrimidin-4-yl]amino}cyclopentan-1-ol] | – | – | 71 | 25 | 12 | > 20000 | > 20000 | 39 | 6
4 | CC(C)(CO)Nc1nc(-c2ccncc2)nc2cnccc12 [Example 66, 2-methyl-2-{[2-(pyridin-4-yl)pyrido[3,4-d]pyrimidin-4-yl]amino}propan-1-ol] | 11 | 6200 | 2 | 2503 | 280 | 534 | 1010 | 1160 | 89
5 | FC(F)(F)C1(Nc2nc(-c3ccncc3)cc3cnccc23)CC1 [Example 288, 3-(pyridin-4-yl)-N-(1-(trifluoromethyl)cyclopropyl)-2,6-naphthyridin-1-amine] | 34 | – | 4 | 2779 | 302 | 18300 | 7420 | 1241 | 95
6 | CC1(Nc2cc(-c3ccncc3)cc3cnccc23)CC1 [Example 289, N-(1-methylcyclopropyl)-7-(pyridin-4-yl)isoquinolin-5-amine] | – | – | 4 | 1421 | 84 | 34100 | 6500 | 681 | 80
7 | FC(F)(F)C1CN(c2nc(-c3ccncc3)nc3cnccc23)CCN1 (stereo not shown) [Example 290, 2-(pyridin-4-yl)-4-(3-(trifluoromethyl)piperazin-1-yl)pyrido[3,4-d]pyrimidine] | 8 | 3000 | 4 | 2071 | 221 | – | 1390 | 1051 | 90

Further lines, with some results ahead:

Row | IC50 [1] [nM] | IC50 [2] [nM] | IC50 [9] [nM] | SMILES | Endothelial Cell density in vitro [3] [cells/mm^2] | Expansion factor (Fold Cell expansion) [4] | IC50 [5] [nM] | EC50 [6] [nM] | Expansion factor [7] | Percentage of p63a-positive cells [8] [%]
8 | 2 | 600 | 1 | FC(F)(F)C1(Nc2nc(-c3ccncc3)nc3cnccc23)CCC1 [Example 62, 2-(pyridin-4-yl)-N-[1-(trifluoromethyl)cyclobutyl]pyrido[3,4-d]pyrimidin-4-amine] | 3301 | 402 | 40 | 538 | 1712 | 95
9 | 20 | 1700 | 3 | CC(C)(Nc1nc(-c2ccncc2Cl)nc2cnccc12)C(F)(F)F [Example 139, 2-(3-chloropyridin-4-yl)-N-(1,1,1-trifluoro-2-methylpropan-2-yl)pyrido[3,4-d]pyrimidin-4-amine] | 1179 | 107 | 380 | 2660 | 961 | 87
10 | 15 | 9000 | 2 | CCCNc1nc(-c2c[nH]nc2C(F)(F)F)nc2cnccc12 [Example 287, N-propyl-2-(3-(trifluoromethyl)-1H-pyrazol-4-yl)pyrido[3,4-d]pyrimidin-4-amine] | 1893 | 237 | 2990 | 3880 | 991 | 86
